Some results are limits rather than exact numbers.

This experiment deals with T1, MALT1 (Homo sapiens, UniProt Q9UDY8).
T1 construct: Avi-tagged FL MALT-1 (Pharmaron, stored at −70° C.); Avi-tag
T1 sequence (Q9UDY8 1-824): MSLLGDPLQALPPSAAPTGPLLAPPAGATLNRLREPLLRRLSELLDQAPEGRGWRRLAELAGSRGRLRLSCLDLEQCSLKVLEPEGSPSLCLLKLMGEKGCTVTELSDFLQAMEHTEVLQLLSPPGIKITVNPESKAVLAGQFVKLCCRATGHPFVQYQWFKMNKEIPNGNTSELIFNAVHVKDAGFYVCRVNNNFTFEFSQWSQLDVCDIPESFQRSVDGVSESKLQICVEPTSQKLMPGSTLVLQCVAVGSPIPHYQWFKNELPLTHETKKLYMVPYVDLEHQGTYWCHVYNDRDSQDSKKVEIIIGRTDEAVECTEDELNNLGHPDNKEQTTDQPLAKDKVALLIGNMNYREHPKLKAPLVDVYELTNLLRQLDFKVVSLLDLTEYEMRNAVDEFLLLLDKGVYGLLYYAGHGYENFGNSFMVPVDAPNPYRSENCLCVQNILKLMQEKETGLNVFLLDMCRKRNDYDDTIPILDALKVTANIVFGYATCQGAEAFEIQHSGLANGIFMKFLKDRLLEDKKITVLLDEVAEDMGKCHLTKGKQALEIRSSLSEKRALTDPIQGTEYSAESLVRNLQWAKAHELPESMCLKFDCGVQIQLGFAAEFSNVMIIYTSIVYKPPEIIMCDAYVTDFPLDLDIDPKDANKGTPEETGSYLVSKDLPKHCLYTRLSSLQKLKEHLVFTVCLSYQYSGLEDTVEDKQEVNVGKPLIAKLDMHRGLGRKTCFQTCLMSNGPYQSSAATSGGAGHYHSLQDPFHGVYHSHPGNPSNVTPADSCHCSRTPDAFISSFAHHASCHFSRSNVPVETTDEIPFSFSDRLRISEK
Description: MALT1 inhibition assay (MALT-1 Fluorogenic Peptide Cleavage Assay, Ac-LRSR-AMC substrate). It counts as biochemical. Particulars: Avi-tagged FL MALT-1, 30 min pre-incubation, 90 min reaction at room temperature, fluorescence intensity. The essentials:
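Full-length Avi-tagged MALT1 pre-incubated 30 min at room temperature with compounds (2% DMSO final) in HEPES pH 6.89, sodium citrate, TCEP, EDTA, CHAPS buffer. Ac-LRSR-AMC added from 50 µM (Km) or […] working stocks; 90 min at room temperature, AMC fluorescence (ex 342/em 441 nm); IC50 from % inhibition curves.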
Regarding `Cn1nc(-c2ccccc2)c(C(F)(F)F)c1C(=O)Nc1cnc(-n2nccn2)c(C(F)(F)F)c1` [Compound I-151], the IC50 was under 0.5 µM. To `Cn1nc(-c2ccccc2)c(C(F)(F)F)c1C(=O)Nc1cnc(-n2nccn2)c(Cl)c1` [Compound I-152] belongs under 0.5 µM; to `Cn1nc(-c2ccccc2)c(C(F)(F)F)c1C(=O)Nc1cnc(-n2nccn2)c(C#N)c1` [Compound I-153], under 0.5 µM.

In turn, `Cn1nc(-c2cccc3c2OC(F)(F)O3)c(C(F)(F)F)c1C(=O)Nc1cnc(-n2nccn2)c(Cl)c1` [Compound I-154] returned an IC50 of under 0.5 µM. `Cn1nc(C(=O)Nc2ccc(C(=O)N3CC(O)C3)c(Cl)c2)cc1-c1ccccc1` [Compound I-155] registered an IC50 of over 10 µM. In turn, `COc1ncc(NC(=O)c2c(C(F)(F)F)c(-c3cccc4ccoc34)nn2C)cc1C#N` [Compound I-156] registered an IC50 of under 0.5 µM.

As to `Cn1nc(-c2cccc3c(=O)[nH]ccc23)c(C(F)(F)F)c1C(=O)Nc1cnc(-n2nccn2)c(C#N)c1` [Compound I-157], the IC50 is under 0.5 µM. For the compound `Cn1nc(-c2cccc3c2OCC3)c(C(F)(F)F)c1C(=O)Nc1ccnc(C(F)(F)F)c1` [Compound I-158, 3-(2,3-dihydrobenzofuran-7-yl)-1-methyl-4-(trifluoromethyl)-N-(2-(trifluoromethyl)pyridin-4-yl)-1H-pyrazole-5-carboxamide], the IC50 was under 0.5 µM. On to `Cn1nc(-c2cccc3c2OCC3)c(C(F)(F)F)c1C(=O)Nc1cnc(-n2nccn2)c(Cl)c1` [Compound I-159], for which the IC50 is under 0.5 µM.

On to `Cn1nc(-c2cncc3ccccc23)c(C(F)(F)F)c1C(=O)Nc1ccnc(C(F)(F)F)c1` [Compound I-160], for which the IC50 lay within 0.5 to 2.5 µM.

The compound `Cn1nc(-c2cccc3ncnn23)c(C(F)(F)F)c1C(=O)Nc1ccnc(C(F)(F)F)c1` [Compound I-162, 3-([1,2,4]triazolo[1,5-a]pyridin-5-yl)-1-methyl-4-(trifluoromethyl)-N-(2-(trifluoromethyl)pyridin-4-yl)-1H-pyrazole-5-carboxamide] gave an IC50 of 0.5 to 2.5 µM.

`Cn1nc(-c2cccc3nccn23)c(C(F)(F)F)c1C(=O)Nc1cnc(-n2nccn2)c(Cl)c1` [Compound I-163] had an IC50 of under 0.5 µM. The figure for `[2H]C([2H])([2H])n1nc(-c2ccccc2)c(C(F)(F)F)c1C(=O)Nc1cnc(-n2nccn2)c(Cl)c1` [Compound I-165] is under 0.5 µM. The compound `[2H]C([2H])([2H])n1nc(C(=O)Nc2cnc(-n3nccn3)c(Cl)c2)c(C(F)(F)F)c1-c1ccccc1` [Compound I-166] displayed an IC50 of under 0.5 µM. Consider `[2H]C([2H])([2H])n1nc(-c2ccccc2)c(C(F)(F)F)c1C(=O)Nc1cnc(-n2nccn2)c(C#N)c1` [Compound I-167], for which the IC50 is under 0.5 µM.

For `CCn1nc(C(=O)Nc2cnc(-n3nccn3)c(Cl)c2)c(C(F)(F)F)c1-c1ccccc1` [Compound I-168], the IC50 was under 0.5 µM.

`CCn1nc(-c2ccccc2)c(C(F)(F)F)c1C(=O)Nc1cnc(-n2nccn2)c(Cl)c1` [Compound I-170]: the IC50 was under 0.5 µM. On to `CN(C)CCn1nc(-c2ccccc2)c(C(F)(F)F)c1C(=O)Nc1cnc(-n2nccn2)c(Cl)c1` [Compound I-171, N-(5-chloro-6-(2H-1,2,3-triazol-2-yl)pyridin-3-yl)-1-(2-(dimethylamino)ethyl)-3-phenyl-4-(trifluoromethyl)-1H-pyrazole-5-carboxamide], for which the IC50 fell in the range of 0.5 to 2.5 µM. Compound `COCCn1nc(-c2ccccc2)c(C(F)(F)F)c1C(=O)Nc1cnc(-n2nccn2)c(Cl)c1` [Compound I-172] had an IC50 of 0.5 to 2.5 µM.

`COCCn1nc(C(=O)Nc2cnc(-n3nccn3)c(Cl)c2)c(C(F)(F)F)c1-c1ccccc1` [Compound I-173]: the IC50 is over 10 µM. In turn, `COCCn1nc(-c2ccccc2)c(C(F)(F)F)c1C(=O)Nc1cnc(-n2nccn2)c(C#N)c1` [Compound I-174] registered an IC50 of 0.5 to 2.5 µM.

For the compound `CN(C)CCn1nc(-c2ccccc2)c(C(F)(F)F)c1C(=O)Nc1cnc(-n2nccn2)c(C#N)c1` [Compound I-175], the IC50 is 2.5 to 10 µM. To `O=C(Nc1cnc(-n2nccn2)c(Cl)c1)c1c(C(F)(F)F)c(-c2ccccc2)nn1C1COC1` [Compound I-176] belongs 2.5 to 10 µM.

The compound `N#Cc1cc(NC(=O)c2c(C(F)(F)F)c(-c3ccccc3)nn2C2COC2)cnc1-n1nccn1` [Compound I-177] came in with an IC50 of 2.5 to 10 µM. As to `O=C(Nc1ccnc(C(F)(F)F)c1)c1c(C(F)(F)F)c(-c2ccccc2)nn1C1COC1` [Compound I-178], the IC50 is over 10 µM. The figure for `O=C(Nc1cnc(-n2nccn2)c(Cl)c1)c1c(C(F)(F)F)c(-c2ccccc2)nn1C(F)F` [Compound I-179, N-(5-chloro-6-(2H-1,2,3-triazol-2-yl)pyridin-3-yl)-1-(difluoromethyl)-3-phenyl-4-(trifluoromethyl)-1H-pyrazole-5-carboxamide] is under 0.5 µM; for `O=C(Nc1cnc(-n2nccn2)c(Cl)c1)c1nn(C(F)F)c(-c2ccccc2)c1C(F)(F)F` [Compound I-180] it is under 0.5 µM; for `O=C(Nc1cnc(-n2nccn2)c(Cl)c1)c1cc(-c2ccccc2)nn1C(F)F` [Compound I-181] it is 2.5 to 10 µM. To `O=C(Nc1cnc(-n2nccn2)c(Cl)c1)c1cc(-c2ccccc2)n(C(F)F)n1` [Compound I-182] belongs over 10 µM. The compound `O=C1c2c(C(F)(F)F)c(-c3ccccc3)nn2CCCN1c1ccnc(C(F)(F)F)c1` [Compound I-183, 2-phenyl-3-(trifluoromethyl)-5-(2-(trifluoromethyl)pyridin-4-yl)-5,6,7,8-tetrahydro-4H-pyrazolo[1,5-a][1,4]diazepin-4-one] returned an IC50 of over 10 µM. The compound `O=C1c2c(C(F)(F)F)c(-c3ccccc3)nn2CCN1c1ccnc(C(F)(F)F)c1` [Compound I-184] gave an IC50 of over 10 µM. Compound `CN(C)CCn1nc(-c2cccc3ccoc23)c(C(F)(F)F)c1C(=O)Nc1cnc(-n2nccn2)c(C#N)c1` [Compound I-186, 3-(benzofuran-7-yl)-N-(5-cyano-6-(2H-1,2,3-triazol-2-yl)pyridin-3-yl)-1-(2-(dimethylamino)ethyl)-4-(trifluoromethyl)-1H-pyrazole-5-carboxamide] displayed an IC50 of under 0.5 µM.

In turn, `Cn1nc(-c2cccc3c(=O)[nH]cnc23)c(C(F)(F)F)c1C(=O)Nc1ccnc(C(F)(F)F)c1` [Compound I-187, 1-methyl-3-(4-oxo-3,4-dihydroquinazolin-8-yl)-4-(trifluoromethyl)-N-(2-(trifluoromethyl)pyridin-4-yl)-1H-pyrazole-5-carboxamide] yielded an IC50 of 2.5 to 10 µM.

`O=C(Nc1cnc(-n2nccn2)c(Cl)c1)c1nn2c(c1C(F)(F)F)-c1ccccc1CC2` [Compound I-188, N-(5-chloro-6-(2H-1,2,3-triazol-2-yl)pyridin-3-yl)-1-(trifluoromethyl)-5,6-dihydropyrazolo[5,1-a]isoquinoline-2-carboxamide] yielded an IC50 of under 0.5 µM. `O=C(Nc1cnc(-n2nccn2)c(Cl)c1)c1c(C(F)(F)F)c(-c2ccccc2)nn1C1CC1` [Compound I-189, N-(5-chloro-6-(2H-1,2,3-triazol-2-yl)pyridin-3-yl)-1-cyclopropyl-3-phenyl-4-(trifluoromethyl)-1H-pyrazole-5-carboxamide] displayed a half-inhibitory concentration (IC50) of under 0.5 µM.

Compound `O=C(Nc1cnc(-n2nccn2)c(C(F)(F)F)c1)c1c(C(F)(F)F)c(-c2ccccc2)nn1C1CC1` [Compound I-190] had an IC50 of 0.5 to 2.5 µM.

As for `O=C(Nc1cnc(-n2nccn2)c(Cl)c1)c1nn(C2CC2)c(-c2ccccc2)c1C(F)(F)F` [Compound I-191], the IC50 lay within 0.5 to 2.5 µM. The figure for `O=C(Nc1ccnc(C(F)(F)F)c1)c1nn(C2CC2)c(-c2ccccc2)c1C(F)(F)F` [Compound I-192] is 0.5 to 2.5 µM; for `Cn1nc(C(=O)c2ccccc2)c(C(F)(F)F)c1C(=O)Nc1ccnc(C(F)(F)F)c1` [Compound I-193, 3-benzoyl-1-methyl-4-(trifluoromethyl)-N-(2-(trifluoromethyl)pyridin-4-yl)-1H-pyrazole-5-carboxamide] it is 0.5 to 2.5 µM; for `Cn1nc(-c2cnc(CO)c3ccccc23)c(C(F)(F)F)c1C(=O)Nc1ccnc(C(F)(F)F)c1` [Compound I-194, 3-(1-(hydroxymethyl)isoquinolin-4-yl)-1-methyl-4-(trifluoromethyl)-N-(2-(trifluoromethyl)pyridin-4-yl)-1H-pyrazole-5-carboxamide] it is 2.5 to 10 µM. Compound `Cn1nc(-c2cnc3ccccn23)c(C(F)(F)F)c1C(=O)Nc1ccnc(C(F)(F)F)c1` [Compound I-195, 3-(imidazo[1,2-a]pyridin-3-yl)-1-methyl-4-(trifluoromethyl)-N-(2-(trifluoromethyl)pyridin-4-yl)-1H-pyrazole-5-carboxamide] showed an IC50 of over 10 µM.

The term IC50 denotes the concentration at which inhibition is half-maximal. The low end stands for greater potency, the high end for weaker potency.

Values taken from patent US20260085073A1, “PYRAZOLYLCARBOXAMIDE COMPOUNDS AND THEIR USE IN THERAPY” (Hotspot Therapeutics, Inc., priority 2022, published 2026).
